Test results reported in publication PMC12037410, “Pharmacological targeting of BMAL1 modulates circadian and immune pathways” (Nature Chemical Biology, 2025).

biological target: T1, BMAL1 (Homo sapiens, UniProt O00327); test: ITC; also crystal structure ([…] Å), SPR (Kd […]), PTS (ΔTm […] °C), CETSA (EC50 […]); assay type: binding; parameters: PASB domain (338–449 amino acids); conditions: not given
T1 sequence (O00327 338-449): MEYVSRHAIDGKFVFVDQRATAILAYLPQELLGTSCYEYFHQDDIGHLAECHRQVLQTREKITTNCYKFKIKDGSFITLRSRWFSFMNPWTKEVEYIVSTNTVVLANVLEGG

In the case of `CCc1ccc(OCC(F)CO)c2occc12` (racemic) [compound 4, CCM], the Kd is reported as 1990 ± 380 nM.

biological target: T1, BMAL1; test: not given; parameters: PASB domain (residues 338–449); Protein thermal shift (PTS) fragment screen on recombinant human BMAL1(PASB), shift of melting temperature; conditions: dTmB; binder

Point of comparison: `O=C(c1ccc(C(F)(F)F)cc1)C1CCCCC1` [Prestw-Frag-3334, Compound 225], “Bmal1(PASB) dTmB” value -0.21 °C. Against it:
- COc1ccc(S(=O)(=O)N2CCNCC2)cc1 [Prestw-Frag-3313, Compound 215] — higher, -0.02 °C
- CCOc1ccccc1C(=N)N [Prestw-Frag-3314, Compound 150] — lower, -0.32 °C
- Nc1ncc([N+](=O)[O-])s1 [Prestw-Frag-3324, Compound 478] — lower, -7.14 °C
- Nc1ncnc2c1ncn2CCO [Prestw-Frag-3329, Compound 91] — lower, -0.48 °C
- NC(=O)c1ccc2[nH]ccc2c1 [Prestw-Frag-3336, Compound 449] — lower, -0.81 °C
- Nc1ccc(CS(=O)(=O)N2CCCC2)cc1 [Prestw-Frag-3341, Compound 142] — lower, -0.24 °C
- COc1ccc(CC(C)N)cc1 (stereo not drawn) [Prestw-Frag-3342, Compound 241] — lower, -0.24 °C
- CS(=O)(=O)NC(Cc1ccccc1)C(=O)O (stereo not drawn) [Prestw-Frag-3362, Compound 137] — higher, 0.29 °C
- CNS(=O)(=O)CCc1ccccc1 [Prestw-Frag-3368, Compound 97] — lower, -0.29 °C
- CCOC(=O)c1cccnc1 [Prestw-Frag-3382, Compound 96] — lower, -0.50 °C
- O=C(CCCN1CCNCC1)c1ccc(F)cc1 [Prestw-Frag-3426, Compound 470] — lower, -0.60 °C
- COc1ccc(CCN)cc1OC [Prestw-Frag-3454, Compound 202] — higher, -0.13 °C
- Oc1ccc(Cc2ccccc2)cc1 [Prestw-Frag-3455, Compound 469] — lower, -2.61 °C
- O=C1CNCCN1 [Prestw-Frag-3458, Compound 117] — lower, -0.43 °C
- O=C1CN(Cc2ccccc2)CCN1 [Prestw-Frag-3459, Compound 48] — lower, -0.65 °C
- CN1CCNCC1=O [Prestw-Frag-3460, Compound 125] — higher, 0.00 °C
- Cn1cc(CC(=O)O)c2ccccc21 [Prestw-Frag-3461, Compound 75] — lower, -0.44 °C
- NC1CCc2ccccc21 (stereo not drawn) [Prestw-Frag-3462, Compound 90] — lower, -0.81 °C
- O=C1COCCN1 [Prestw-Frag-3463, Compound 118] — lower, -0.27 °C
- Cn1ccc(=O)[nH]1 [Prestw-Frag-3664, Compound 92] — higher, 0.17 °C
- O=C1Cc2cc(F)ccc2N1 [Prestw-Frag-3667, Compound 261] — lower, -0.23 °C
- O=C(O)CC1CCCCC1 [Prestw-Frag-3668, Compound 169] — higher, 0.13 °C
- C#Cc1cccc(N)c1 [Prestw-Frag-3669, Compound 7] — lower, -3.75 °C
- CN1CCN(c2ccc(N)cc2)CC1 [Prestw-Frag-3670, Compound 20] — higher, 0.65 °C
- CCN1CCCC1CN (stereo not drawn) [Prestw-Frag-3671, Compound 99] — lower, -0.56 °C
- Fc1ccc(CN2CCNCC2)cc1 [Prestw-Frag-3673, Compound 274] — lower, -1.00 °C
- O=C(c1ccccc1)N1CCNCC1 [Prestw-Frag-3677, Compound 184] — lower, -0.65 °C
- COc1ccc2nc[nH]c2c1 [Prestw-Frag-3678, Compound 41] — lower, -0.91 °C
- O=C1CC2(CCCC2)CC(=O)N1 [Prestw-Frag-3680, Compound 36] — lower, -2.38 °C
- Nc1ccc2c(c1)CCCC2 [Prestw-Frag-3682, Compound 71] — higher, 0.33 °C
- Nc1ncns1 [Prestw-Frag-3683, Compound 69] — lower, -0.32 °C
- CC(=O)c1ccc2c(c1)OCO2 [Prestw-Frag-3686, Compound 57] — lower, -1.06 °C
- NCc1ncc[nH]1 [Prestw-Frag-3689, Compound 15] — lower, -1.37 °C
- CNC(=O)c1c(-c2ccccc2)noc1C [Prestw-Frag-3690, Compound 210] — lower, -0.42 °C
- CN1CCN(CCCC(=O)c2ccc(F)cc2)CC1 [Prestw-Frag-3692, Compound 279] — lower, -0.28 °C
- Oc1cccc2[nH]ccc12 [Prestw-Frag-3696, Compound 12] — lower, -0.70 °C
- O=C1COc2cc(O)ccc21 [Prestw-Frag-3703, Compound 77] — higher, 0.62 °C
- c1ccc(C2COCCN2)cc1 (stereo not drawn) [Prestw-Frag-3705, Compound 182] — lower, -0.30 °C
- CC(C(=O)O)c1cccc(F)c1 (stereo not drawn) [Prestw-Frag-3706, Compound 79] — higher, 0.26 °C
- NC1CCc2[nH]c3ccccc3c2C1 (stereo not drawn) [Prestw-Frag-3709, Compound 361] — higher, 1.14 °C
- O=C(O)C(c1ccccc1)c1ccccc1 [Prestw-Frag-3711, Compound 127] — higher, -0.11 °C
- c1ccc(C2CCCNCC2)cc1 (stereo not drawn) [Prestw-Frag-3712, Compound 230] — lower, -0.85 °C
- Oc1ccc2c(c1)CCC2 [Prestw-Frag-3713, Compound 89] — lower, -0.82 °C
- NC1CCC(=O)NC1=O (stereo not drawn) [Prestw-Frag-3716, Compound 102] — higher, -0.05 °C
- CC(O)(C(=O)O)c1ccccc1 (stereo not drawn) [Prestw-Frag-3717, Compound 103] — higher, -0.01 °C
- O=C1CNCN1 [Prestw-Frag-3718, Compound 116] — higher, -0.07 °C
- c1cncc(CN2CCNCC2)c1 [Prestw-Frag-3722, Compound 288] — lower, -0.77 °C
- NC(=O)N1CCNCC1 [Prestw-Frag-3723, Compound 152] — higher, 0.03 °C
- Cc1n[nH]c(C)c1N [Prestw-Frag-3724, Compound 23] — lower, -1.19 °C
- FC(F)(F)c1ccn[nH]1 [Prestw-Frag-3726, Compound 192] — higher, 0.30 °C
- OCC1CCNCC1 [Prestw-Frag-3727, Compound 325] — higher, 0.08 °C
- OCC1CCCNC1 (stereo not drawn) [Prestw-Frag-3728, Compound 390] — lower, -0.26 °C
- c1cc(N2CCNCC2)ncn1 [Prestw-Frag-3729, Compound 289] — higher, -0.01 °C
- N#CCC(=O)N1CCCCC1 [Prestw-Frag-3730, Compound 302] — higher, 0.12 °C
- CCN(CC)C(=O)CC#N [Prestw-Frag-3731, Compound 282] — higher, -0.04 °C
- c1ccc2c(c1)NCCO2 [Prestw-Frag-3732, Compound 54] — higher, 0.57 °C
- CC(C)(CN)c1ccccc1 [Prestw-Frag-3733, Compound 285] — lower, -0.30 °C
- O=c1[nH]cncc1-c1ccccc1 [Prestw-Frag-3734, Compound 254] — lower, -0.26 °C
- Oc1ccccc1N1CCNCC1 [Prestw-Frag-3738, Compound 34] — higher, 0.10 °C
- COc1ccc2c(c1)CCC(C(=O)O)C2 (stereo not drawn) [Prestw-Frag-3739, Compound 163] — higher, 0.52 °C
- Cn1c(N)nc2ccccc21 [Prestw-Frag-3740, Compound 377] — higher, -0.10 °C
- OCc1ccc2c(c1)OCO2 [Prestw-Frag-3741, Compound 372] — higher, -0.20 °C
- Cc1nc(-c2ccccc2)cs1 [Prestw-Frag-3743, Compound 378] — lower, -0.52 °C
- c1ccc(-n2ccnc2)cc1 [Prestw-Frag-3744, Compound 409] — lower, -0.78 °C
- Cc1nc(-c2ccccc2F)cs1 [Prestw-Frag-3745, Compound 298] — higher, -0.20 °C
- NCCc1ccc(F)cc1F [Prestw-Frag-3746, Compound 138] — lower, -0.34 °C
- NCc1cscn1 [Prestw-Frag-3747, Compound 29] — lower, -1.05 °C
- NCCOCc1ccccc1 [Prestw-Frag-3749, Compound 335] — higher, 0.05 °C
- c1ccc2c(c1)CCNCC2 [Prestw-Frag-3750, Compound 343] — higher, -0.06 °C
- NCC1(c2ccccc2)CC1 [Prestw-Frag-3751, Compound 367] — lower, -0.24 °C
- Cc1[nH]cnc1CO [Prestw-Frag-3752, Compound 153] — higher, 0.29 °C
- c1ncc(C2CCNCC2)[nH]1 [Prestw-Frag-3753, Compound 303] — lower, -0.23 °C
- CC(=O)C1CCNCC1 [Prestw-Frag-3756, Compound 333] — higher, -0.19 °C
- CC1CCC(=O)O1 (stereo not drawn) [Prestw-Frag-3757, Compound 251] — higher, -0.06 °C
- c1ccc(-n2cccn2)cc1 [Prestw-Frag-3759, Compound 239] — lower, -0.29 °C

same assay, conditions: dTmB; binder; Bmal1(PASB) dTmB

For `CC1=NN(c2ccccc2)C(=O)C1` [Prestw-Frag-3742, Compound 81], the “Bmal1(PASB) dTmB” value was 1.77 °C.
